The results in this text go back to patent US20060014726A1, “Derivatives of cyclic1, 3- propanediol phosphate and their action in differentiation therapy” (priority 2002, published 2006).

Assay [1] concerns ER-α in T47D cells. Put plainly: Western blot analysis of ER-α level in T47D cells. The assay is classed as cell-based, human. The settings on record: 15 μM. How it is done: Turning to FIG. 1 there are shown Western blot analyses showing the effect of 1,3cPP on the expression level of ER-α. In the ER-α assay, MCF-7 cells were incubated with 1-100 μM 1,3cPP for up to 14 days. The analysis indicates a relative increase in the level of wild type ER-α receptor (MW 70,000) with either an increase in 1,3cPP concentration or time of incubation. On days 6 and 14, a nearly 2-fold and 3-fold increase were observed, respectively (FIGS. 1A, C, D, F). […] This band could be related to one of deleted exons D3-4 (MW 49,000), D4 (MW 54,000), or D7 (MW 51,000) ER-α variants.
Breast Cancer Cells. The human breast cancer MCF-7 cell line were obtained from Prof. […] The absence of Mycoplasma contamination was monitored by a Mycotrim TC test (Irvine Scientific, Santa Ana, Calif.) carried out once every 3 months.
(§1) For ER-α protein analysis, MCF-7 and T47D cells were cultured in 60×15 mm petri dishes. […] The protein concentration in each sample (1.5-4 mg/ml) was determined using the Coomassie Protein Assay (Pierce, Rockford, Ill.) according to the manufacturer's instructions. […] Bound antibodies were detected by horseradish peroxidase-conjugated goat anti-rabbit IgG, (Transduction Laboratories, Lexington, Ky. using the ECL detection method. Band densities were quantified by densitometry (Biorad model GS-690 Imaging densitometer) using Molecular Analyst software.

For assay [2], the system named is progesterone receptor (PR) in MCF-7 cells. The assay is described as follows: Western blot analysis of PR level in MCF-7 cells. It counts as cell-based, human. Particulars: MCF-7 cells, from 10 μM upwards. How it is done: In an analogous manner, a set of experiments was preformed with MCF-7 cells for determining the level of PR upon incubation with varying concentrations of 1,3-cPP for a period of up to 11 days. Similar to the augmentation observed for ER-α, an increase of up to 2.8 and 2.2 fold expression of the wild type PR (MW 98,000), was observed from 10 μM 1,3-cPP and upwards on days 8 and 11, respecively (FIGS. 3A-D).
Breast Cancer Cells. The human breast cancer MCF-7 cell line were obtained from Prof. Hadassa Degani, of Weizmann Institute of Science, Rehovot, Israel. The cells were grown as monolayers in high glucose DMEM supplemented with 6% fetal calf serum and combined antibiotics. Human breast cancer T47D cells, clones 8 (ER^loPR^lo) and 11 (ER^+PR^+) were obtained from Prof Iafa Keydar, Tel-Aviv university and were grown in DMEM supplemented with 10% fetakl calf serum antibiotics. K562 erythroleukemia cells were obtained from Dr. Alfa Peled of Weizmann Institute of Science, Rehovot, Israel. These cells were grown in RPMI 1640 containing 10% fetal calf serum and antibiotics. All lines were grown at 37° C. in the presence of 5% CO2. The absence of Mycoplasma contamination was monitored by a Mycotrim TC test (Irvine Scientific, Santa Ana, Calif.) carried out once every 3 months.
as §1, with “dishes. From the second day of culture onward, the cells were treated with various concentrations of 1,3cPP for up to 14 days. At the end of the incubation period, the medium was aspirated and the cells were washed 3 times with cold (4° C.) PBS.” for “dishes.”
A general note: In western blotting, separated proteins are transferred to a membrane and probed.

The structures appear in SMILES notation.

Regarding `O=P1(O)OCCCO1` [1,3-cPP, 1,3-cyclic propanediol phosphate], the “level of wild type ER-α receptor” value in assay [1] (T47D (ER+PR+) clone 11 cells, 6 days) is recorded as “sharp increase”. The “expression of variant ER-α (MW≈40,000)” value in assay [1] (T47D clone 8 (ERlo PRlo), 3 days incubation) is recorded as “sharp increase”. The “increase in expression of the wild type PR (MW 98,000)” value in assay [2] (day 8) is “up to 2.8 fold”; in assay [2] (day 11) it was at most 2.2 fold.
